Measurements from patent US20250041387A1, “POLYPEPTIDE SEQUENCE OF KDM6B AND APPLICATION OF KDM6B IN REGULATING AND CONTROLLING FUNCTION OF MESENCHYMAL STEM CELL” (BEIJING STOMATOLOGICAL HOSPITAL, CAPITAL MEDICAL UNIVERSITY, priority 2021, published 2025).

Key:
[1] = biological target: WDR5 synthetic protein (Homo sapiens, UniProt P61964); test: Polypeptide microarray of KDM6B incubated with biotin-labeled WDR5; type: binding; settings: FIG. 3A, B; positive = optical density more than 30%
Excerpt: • (1) Synthesis of polypeptide chip: A polypeptide chip was designed by overlapping and synthesized according to the sequence of KDM6B protein, with a total of two arrays. • (2) Synthesis of polypeptide microarray: A matrix membrane was activated, and placed on a fully automated polypeptide chip synthesizer. A Fmoc-amino acid solution was automatically transferred to a specific position on the activated membrane according to the set procedure, to react with the membrane. The membrane was immersed sequentially into the blocking solution I and II to block side chains, and washed with dimethyl formamide (DMF). The membrane was placed in a deprotection solution to remove the Fmoc protective group at the amino-terminal, then washed with DMF, and dried with ethanol. The above steps were repeated until all polypeptide microarrays were completely synthesized. After the synthesis was completed, the protective groups of the side chains were removed with specific organic reagents. […] The control group was incubated with the blocking solution. • (6) Streptavidin-HRP incubation: The reaction reagent Streptavidin-HRP (High Sensitivity Streptavidin-HRP (prod #21133)) was diluted with the blocking solution in an ratio of 1:10000, and then the polypeptide microarray chip was incubated with 5 ml of the diluted Streptavidin-HRP under shaking at room temperature for 2 hours, and washed. • (7) Color development: ECL luminescence reagent was added, and digital imaging was performed on a Chempchemi digital imager. • (8) Scan of polypeptide microarray chip and data analysis of color spot: The colored polypeptide microarray chip was imaged at 425 nm using the Chempchemi Imaging System with 200 s exposure. The optical density of colored spots was analyzed using TotalLab image analysis software, and the optical density of each colored spot was calculated using the “Spot Edge Average” algorithm in the software, with the optical density of the surrounding background of each colored spot as a reference. […]

[2] = tested on: stem cells from apical papilla; test: Alizarin red staining and calcium quantification in SCAPs; type: cell-based, human; settings: SCAPs treated with polypeptide, 2 weeks of odontogenic induction, FIG. 8F, G
Description: (§1) Result of ALP activity was calculated according to Y/incubation time/protein concentration. • (3) Alizarin red staining • 1) After two weeks of osteogenic induction, the culture medium was discarded. The cells were washed three times with PBS pre-cooled at 4° C., and fixed with 70% ethanol at 4° C. for 1 hour. • 2) The cells were washed 2 times with double distilled water, and stained with 40 mM alizarin red solution (pH 4.2) at room temperature for 10 minutes. The staining was observed by naked eyes. • 3) The cells were washed 3 times with double-distilled water. • (4) Determination of Ca^2+ concentration
To quantitatively determine the concentration of calcium, the cells were added with 10% cetyl pyridinium chloride for dissolution for 30 minutes at room temperature. The OD value was measured at 562 nm using a spectrophotometer, and the calcium ion concentration of the samples was calculated according to the standard curve of calcium ion concentration, with the total protein concentration as an internal reference.

[3] = tested on: stem cells from apical papilla; test: ALP activity of SCAPs after odontogenic induction; type: cell-based, human; settings: SCAPs treated with polypeptide, 3 days of odontogenic induction, FIG. 8E
Description: • (1) Osteogenic culture medium was purchased from Invitrogen, USA. • (2) Quantification of alkaline phosphatase (ALP) activity • 1) After 3 days of osteogenic induction, the culture medium was discarded, and the cells were washed with PBS twice. • 2) The cells were added with 500 μL of lysis buffer, and incubated at 37° C. for 15 minutes. • 3) The cells were scraped, transferred into a 1.5 mL EP tube, and centrifuged at 14000 rpm at 4° C. for 10 minutes. The supernatant was transferred into a new EP tube to measure the protein concentration, and the procedure was the same as that in Western blot. • 4) The capsule from the alkaline phosphatase kit (Stock substrate Sol.) was dissolved with 5 mL of distilled water under vigorous shaking, and mixed well. • 5) 50 μL of ALP buffer was added to 50 μL of Stock substrate Sol to obtain a mixture. 100 μL of the mixture was added to each well in a 96-well plate, then added with 10 μL of sample, and mixed well. A blank well without sample added was set for zero adjustment. • 6) The plate was incubated at 37° C. for 15 minutes, and the OD value was measured at 405 nm.
as §1

[4] = biological target: KDM6B/WDR5 protein complex (Homo sapiens, UniProt P61964); test: Co-IP of KDM6B/WDR5 complex in bone marrow mesenchymal stem cells; type: cell-based; design: endogenous in cells; host or cells: bone marrow mesenchymal stem cells; settings: FIG. 3C
Description: Protein was extracted from cells of knockout group and overexpression group using IP lysate. The knockout group cells SCAPs-Scramsh and SCAPs-KDM6Bsh, SCAPs-Scramsh and SCAPs-WDR5sh, BMSCs-Scramsh and BMSCs-WDR5sh were added with KDM6B antibody, WDR5 antibody, and IgG antibody, respectively, and then rotated on a shaker at 4° C. overnight. On the next day, the cells were added with Protein A/G beads and rotated on a rotary shaker at 4° C. for 2 hours. A complex of protein-antibody-agarose bead was formed, and the formation of a protein complex of KDM6B and WDR5WB was detected by WB. The overexpression group cells SCAPs-Vector, SCAPs-HA-KDM6B, SCAPs-HA-KDM6B-mut102, and SCAPs-HA-KDM6B-mut114 were added with ProteinA/G beads with HA antibody, and cells SCAPs Vector and SCAPs-Myc-WDR5 were added with ProteinA/G beads with Myc antibody. All cells were incubated overnight to form a complex of protein-antibody-agarose bead. The formation of a protein complex of KDM6B and WDR5 was detected by WB method. • (2) Grouping: Input group (loading amount of 25 μg); antibody group (loading amount of 800 μg, 2 μg of antibody); IgG group (loading amount of 800 μg, 2 μg of antibody). Samples were diluted with lysate. • (3) Preparation of protein A/G beads
The protein A/G beads were washed 4 times with PBS, and centrifuged at 2000 g for 2 minutes. The supernatant was carefully collected, and added with PBS to achieve a content of protein A/G beads of 50%. 30 μL of protein A/G beads was added to each tube, and rotated at 4 degrees overnight. • (4) The samples were centrifuged at 5000 rpm for 30 s at 4° C., and washed 4-5 times with PBS by inverted up and down. Then the samples were centrifuged, and the supernatant was discarded. The samples were added with 30 μL of 2× loading buffer, and placed at 100° C. for 5 minutes. • (5) The supernatant was subjected to electrophoresis.

[5] = tested on: senescent mouse bone marrow mesenchymal stem cells; test: Senescence markers β-gal and P16 in senescent mouse BMSCs; type: cell-based

| Substance | binding degree to WDR5 on polypeptide microarray (optical density of spots) [1] | mineralization capacity, quantification of calcium ion [2] | mineralization capacity, quantification of calcium ion ([2]; listed as 114 peptide) | ALP activity [3] | ALP activity ([3]; listed as 114 peptide) | opening/blocking of the binding of KDM6B/WDR5 protein complex (Co-IP) [4] | expression of senescence markers of β-gal and P16 [5] | mineralization capacity, quantification of calcium ion ([2]; listed as 102 peptide) | ALP activity ([3]; listed as 102peptide) |
| --- | --- | --- | --- | --- | --- | --- | --- | --- | --- |
| FITC-(Acp)-ADLTISHCAADVVRAYGRKKRRQRRR [peptide 114] | higher binding degree | significantly higher | 1.619 | promoted | 0.7238 | could effectively open the binding | reduce | – | – |
| FITC-(Acp)-KEKSRRVLGNLDLQSYGRKKRRQRRR [peptide 102] | higher binding degree | significantly higher | – | promoted | – | could effectively open the binding | reduce | 1.637 | 0.3961 |
